Peptide text beside a SMILES is read from it. * marks the point of attachment. Cbz = O=C(OCc1ccccc1)*
Key:
Assay type in all cases: cell-based, human
[1] = system: MDA-MB231 breast cancer cells; test: Cytotoxicity and growth assay in MDA-MB231 breast cancer cells (SRB, TCA-precipitated protein); conditions: MDA-MB231; up to 3 days
Protocol: An invasive, estrogen-independent breast cancer cell line that spontaneously expresses high levels of Notch-1 and -4, MDA-MB231, and normal human breast cells were used to investigate whether inhibition of Notch activation or expression affects the biological behavior of breast cancer cells. Human Mammary Epithelial Cells (HMEC) were purchased from Clonetics and cultured in mammary epithelial cell basal medium (MEBM) supplemented with 52 μg/ml Bovine Pituitary Extract […], […] human recombinant Epidermal Growth Factor (hEGF), 5 μg/ml insulin, 0.5 μg/ml Hydrocortisone, 50 μg/ml Gentamicin and 50 μg/ml Amphotericin-B. MDA-MB231 (ATCC, Rockville, Md.) were cultured in DMEM medium with 10% FBS. Notch expression in HMEC and MDA-MB231 cells was silenced using highly specific RNAi. Double-stranded synthetic 21-mer RNA oligonucleotides (siRNAs) were purchased from Dharmacon (Lafayette, Colo.). […] Sequence specificity was determined by BLAST searches which determined the uniqueness of the sequences. Transfection of siRNAs was performed using Oligofectamine (Invitrogen) as recommended by the siRNA manufacturer (Dharmacon). Transfection efficiency was optimized and followed on parallel wells using DNA double stranded oligos of identical sequence to the siRNAs, labeled with biotin on one strand. Transfected cells were identified by Streptavidin-horseradish peroxidase staining (Vectastain) and counted. Transfection efficiencies around 80% were routinely obtained.
Cytotoxicity and growth of transfected cells were estimated by a standard assay used for cancer drug screening, through the total amount of TCA-precipitated cell proteins after drug treatment (Likhitwitayawuid, K et al., 1993, J Nat Prod 56:30-38): 200 μl of cell suspension (10^5 cells/ml) were added to each well in a 96-well plate. After incubation at, 37° C., in 5% CO2 (30 minutes to 72 hours depending on the time course chosen), 50 μl 50% trichloroacetic acid was added to each well. After incubation at 4° C. for 1 hour, precipitates were washed with water 4-5 times and air dried overnight. One hundred μl of SRB solution (0.4% sulforhodamine B in 1% acetic acid, filtered before use) was added to each well for 30 minutes. Wells were washed with 1% acetic acid 4-5 times and air dried. Two hundred μl 10 mM Tris base was added to each well. Plates were shaken for 5-10 minutes and OD at 490 nm (OD490) was recorded via ELISA reader. To assay matrix invasion, 300 μl of cell suspension (10^6 cells/mL in serum-free medium) were added to invasion inserts (BioCoat Matrigel Invasion Chambers, Becton Dickinson, Bedford, Mass.) and incubated for 22 hours at 37° C., 5% CO2. […] After removal of the non-invading cells from the interior of the inserts, stained invading cells were lysed in 10% acetic acid and OD595 was determined. […]

[2] = system: MDA-MB231 breast cancer cells; test: Extracellular matrix invasion of MDA-MB231 cells (Matrigel Invasion Chambers); conditions: 25 μM, 22 h
Protocol: Cytotoxicity and growth of transfected cells were estimated by a standard assay used for cancer drug screening, through the total amount of TCA-precipitated cell proteins after drug treatment (Likhitwitayawuid, K et al., 1993, J Nat Prod 56:30-38): 200 μl of cell suspension (10^5 cells/ml) were added to each well in a 96-well plate. After incubation at, 37° C., in 5% CO2 (30 minutes to 72 hours depending on the time course chosen), 50 μl 50% trichloroacetic acid was added to each well. After incubation at 4° C. for 1 hour, precipitates were washed with water 4-5 times and air dried overnight. One hundred μl of SRB solution (0.4% sulforhodamine B in 1% acetic acid, filtered before use) was added to each well for 30 minutes. Wells were washed with 1% acetic acid 4-5 times and air dried. Two hundred μl 10 mM Tris base was added to each well. Plates were shaken for 5-10 minutes and OD at 490 nm (OD490) was recorded via ELISA reader. To assay matrix invasion, 300 μl of cell suspension (10^6 cells/mL in serum-free medium) were added to invasion inserts (BioCoat Matrigel Invasion Chambers, Becton Dickinson, Bedford, Mass.) and incubated for 22 hours at 37° C., 5% CO2. Cells were stained with 0.9% crystal violet in 10% ethanol for 20 minutes. Inserts were dipped in water several times and air dried. After removal of the non-invading cells from the interior of the inserts, stained invading cells were lysed in 10% acetic acid and OD595 was determined.
Notch silencing was confirmed by Western blot as described above in Example 15 using commercial goat polyclonal antibodies from Santa Cruz Biotechnology to Notch-1 (C-20, Cat# sc-6014 S). For the Western blot analyses, MDA-MB231 cells were treated with 25 μM IL-X for 48 h or with 0.5, 1 or 2 μM z-Leu-Leu-Nle-CHO for 24 h. Cytotoxicity and matrix invasion assays were performed as described above in Example 15. For the cytotoxicity assays, MDA-MB231 cells were treated with […] IL-X for up to 3 days or with 0-20 μM z-Leu-Leu-Nle-CHO for up to 4 days. […]

Notch-1 = test: Notch Western blot in MDA-MB231 cells; conditions: MDA-MB231; 25 μM; 48 hours
Protocol: Notch silencing was confirmed by Western blot using commercial goat polyclonal antibodies from Santa Cruz Biotechnology to Notch-1 (C-20, Cat# sc-6014 S) and Notch-4 (C-19, Cat# sc-8644). Total cell lysates were prepared as follows: cells grown on 6 cm dishes were scraped in lysis buffer containing 1×PBS, 1% Nonidet P40, 0.5% deoxycholate, 0.1% SDS, freshly added aprotinin (45 μg/ml), phenylmethylsulfonyl fluoride (10 μg/ml), and sodium orthovanadate (10 μM). Lysates were sonicated 4 times for 5 seconds each, followed by 30 minutes incubation on ice. Lysates were centrifuged at 10,000 g for 20 minutes at 4° C. Supernatants were used as total cell lysates. Nuclear extracts were prepared as follows: 10,000,000 cells were pelleted, washed, and quickly frozen in a dry ice bath. Pellets were thawed by adding 100 μl of buffer 1 (10 mM HEPES, pH 7.9, 10 mM KCl, 1.5 mM MgCl2, 1 mM DTT). Nuclei were pelleted and lysed in 15 μl Buffer 2 (20 mM HEPES, pH7.9, 0.4 M NaCl, 1.5 mM MgCl2, 25% glycerol, 0.2 mM EDTA, 1 mM DTT, and 0.5 mM PMSF). Lysates were diluted in 50-70 μl Buffer 3 (20 mM HEPES, pH 7.9, 50 mM KCl, 20% glycerol, 0.2 mM EDTA, 1 mM DTT, 0.5 mM PMSF). Protein concentrations were estimated using the BCA protein assay (Pierce). Supernatants were boiled in reducing SDS sample buffer (Novex). Twenty μg protein per lane were run on a 3-8% Tris acetate gel (Invitrogen) in Tris Acetate Reducing Running Buffer (Novex). Protein bands were transferred onto PVDF membranes (BioRad) using transfer buffer (Novex). Membranes were then blocked overnight at 4° C. in 2% blocking solution in TBS (Roche). Primary antibodies were diluted in 2% Boehringer blocking solution (total volume 5 ml). Membranes were incubated for one hour at room temperature with shaking, then washed 6 times for 10 minutes each in TBS wash buffer. Membranes were incubated in secondary antibody in 2% of blocking solution for 30 minutes, then washed 6 times for 10 minutes each at RT in wash buffer. Bands were detected with chemiluminescent reagent (Roche) according to the manufacturer's directions. […]

normal melanocytes = test: Proteasome inhibitors, apoptosis of normal melanocyte cultures (Annexin V FITC flow cytometry); conditions: MC-005, MC-006, MC-008; 24 hrs; 1, 5 or 10 μM
Protocol: (§1) The proteasome inhibitors lactacystin, MG-132, and bortezomib were evaluated for the ability to induce apoptosis in malignant melanoma cell lines (n=3) including an early passage line, RJ002L. MG-132 was obtained from Calbiochem (La Jolla, Calif.) and dissolved in DMSO. Lactacystin was purchased from Sigma Chemical Co. (St. Louis, Mo.) and dissolved in PBS. Bortezomib was obtained from a pharmacy as VELCADE (bortezomib) for Injection from a single use vial for intravenous use only (Millennium Pharmaceuticals, Cambridge, Mass.). A cell line with wild-type p53 (RJ002L) and two melanoma cell lines with mutant p53 alleles (C8161 and MUM2B) were included in this study. Two additional melanoma cell lines were also used: cutaneous SK-MeI-28 cells and primary, early passage MG012 cells. In addition, five normal melanocyte culture cell lines (MC-005, MC-006, MC-008, MC-009 and MC-011) were examined. Prior to testing, the melanoma cell lines were maintained in RPMI supplemented with 10% FBS. Normal human melanocytes were isolated from neonatal foreskins as previously described (Qin J et al., 2004, Mol Cancer Ther 3:895-902, 2004) and cultured with medium 154 containing growth supplements (Cascade Biologics, Portland, Oreg.).
To assess the effect of proteasome inhibitors on the cell lines, the cells were grown in suitable culture media as described above. […]
Following treatment with the proteasome inhibitors, the melanoma and melanocyte cell cultures were assayed for apoptotic cells using the APO TARGET Annexin V FITC staining kit (Biosource, Camarillo, Calif.) according to the manufacturer's instructions followed by flow cytometric analysis using FACScaliber (Becton Dickinson, Palo Alto, Calif.) as described in Qin, J. et al., 2001, Nat Med 7: 385-386. In some cases, cell cycle and apoptosis analysis was measured using propidium iodide staining and flow cytometry as described. […] For cell analysis, DNA histograms were analyzed using MultiCycle for Windows (Phoenix Flow Systems, San Diego, Calif.) as described in Denning, M. F. et al., 1998, J Biol Chem 273: 29995-30002.

melanoma cell lines = test: Proteasome inhibitors, apoptosis of melanoma cell lines (Annexin V FITC flow cytometry); conditions: RJ002L, MG012, C8161, MUM2B, SK-MeI-28; 1-10 μM; 24 hrs
Protocol: as §1
To assess the effect of proteasome inhibitors on the cell lines, the cells were grown in suitable culture media as described above. Highly proliferating cells (i.e., cells that had reached approximately 30% confluency) were exposed to the inhibitors as described below. The culture media was replenished with media containing proteasome inhibitors at various concentrations and the cells were incubated for 24 hours prior to harvesting the cells for further analysis.
Following treatment with the proteasome inhibitors, the melanoma and melanocyte cell cultures were assayed for apoptotic cells using the APO TARGET Annexin V FITC staining kit (Biosource, Camarillo, Calif.) according to the manufacturer's instructions followed by flow cytometric analysis using FACScaliber (Becton Dickinson, Palo Alto, Calif.) as described in Qin, J. et al., 2001, Nat Med 7: 385-386. In some cases, cell cycle and apoptosis analysis was measured using propidium iodide staining and flow cytometry as described. Cells with DNA content less than the G0 amount of untreated cells were considered apoptotic. For cell analysis, DNA histograms were analyzed using MultiCycle for Windows (Phoenix Flow Systems, San Diego, Calif.) as described in Denning, M. F. et al., 1998, J Biol Chem 273: 29995-30002.

NOXA [3] = test: Western blot of NOXA after proteasome inhibitors in melanoma cells; conditions: RJ002L, C8161, MUM2B; 1 μM or 10 μM; 18 hrs
Source text: (§2) A panel of melanoma cells were used to assess the effect of bortezomib on pro-apoptotic proteins. RJ002L, C8161, MUM2B and SK-MeI-28 melanoma cells, as well as two normal melanocyte cultures (MC-010 and MC-012) were examined. Prior to testing, the RJ002L melanoma cell lines were maintained in RPMI supplemented with 10% FBS. Late passage melanoma cell lines (C8161, MUM2B and SK-Me1028) were utilized as previously described (Welch D et al., 1991, Int J Cancer 47:227-237; Bittner M et al., 2000, Nature 406:536-540). Normal human melanocytes were isolated from neonatal foreskins and cultured as previously described (Qin J et al., 2004, Mol Cancer Ther 3:895-902). Proliferating cells were examined by Western blot analysis before and after 18 hrs of exposure to bortezomib (1 μM). Antibodies were obtained as follows: Bad (SC-8044), Bcl-2 (SC-7382), Bcl-xL (SC-634), Mcl-1 (SC-819), Bak (SC-832) from Santa Cruz Biotechnology (Santa Cruz, Calif.); NOXA (OP180) from Calbiochem; Bid, Bim and PUMA from Cell Signaling (Beverly, Mass.); BAX from Upstate (Charlottesville, Va.); and β-actin from ICN (Irvine, Calif.). For the Western blot analysis, whole cell extracts were prepared as previously described (Denning M et al., 1998, J Biol Chem 273:29995-30002). Briefly, cells were harvested by scraping monolayers and washed with PBS. Cell pellets were resuspended in CHAPS buffers containing a protease inhibitor cocktail. Extracts were vigorously shaken at 4° C. for 15 min followed by centrifugation. Supernatants were collected and protein concentration determined using Bio-Rad reagent. Thirty to 50 microgram protein samples were resolved by SDS-polyacrylamide gel electrophoresis and transferred to polyvinylidene difluoride membrane by electroblotting. Membranes were probed with the various primary antibodies overnight at 4° C., followed by detection using ECL reagents (Amersham Pharmacia Biotech, Piscataway, N.J.) according to manufacturer's instructions.
(§3) Two other proteasome inhibitors, lactasytsin and MG-132, were tested for the ability to induce NOXA in melanoma cells and melanocytes. […]

NOXA [4] = test: Western blot of NOXA after proteasome inhibitors in normal melanocytes; conditions: MC-004, MC-005, MC-006, MC-008; 1 μM or 10 μM; 18 hrs
Source text: as §2, §3

SMILES	concentration above which cytotoxic [1]	in vitro matrix invasion [2]	molecular forms of Notch-1 (Notch-1)	cells undergoing apoptosis (normal melanocytes)	apoptotic response to increasing concentrations (melanoma cell lines)	NOXA induction (NOXA [3])	NOXA induction (NOXA [4])
CCC(C)C(NC(=O)OCc1ccccc1)C(=O)NC(C=O)CC(C)C (stereo not drawn) [IL-X, cbz-IL-CHO] (Cbz-Ile-Leu-aldehyde; configuration not given here)	above 100 μM	significantly reduced in vitro matrix invasion	apparent reduction in all molecular forms of Notch-1				
CC(=O)N[C@@H](CSC(=O)[C@]1([C@@H](O)C(C)C)NC(=O)[C@H](C)[C@@H]1O)C(=O)O [lactacystin]				no more than 10%	significantly enhanced apoptotic responses	induced high NOXA levels	no induction of NOXA in any of the normal melanocytes
